Laboratory results reported in patent US20090318494A1, “PYRAZOLO[3,4-B]PYRIDINE COMPOUNDS, AND THEIR USE AS PDE4 INHIBITORS” (Glaxo Group Limited, priority 2006, published 2009).
Counter-ions that a name gives are not always drawn.

Legend:
[1] = tested on: atopic dermatitis patients; details: cited from earlier work
[2] = biological target: T1, PDE4B (human recombinant) (Homo sapiens, UniProt Q07343); test: Inhibition of PDE4B activity: IMAP Fluorescence Polarisation (FP) assay; type: biochemical; details: FP assay or generally similar assay; each limit ±about 0.5; n=1 or average of 2 or more readings; read-out: PDE4B inhibitory activities, pIC50 (converted)
T1 construct: made in house; host or cells: Saccharomyces cerevisiae strain GL62 (named as a possible source, as described in WO 94/20079)
T1 sequence (Q07343 1-564 isoform Q07343-2): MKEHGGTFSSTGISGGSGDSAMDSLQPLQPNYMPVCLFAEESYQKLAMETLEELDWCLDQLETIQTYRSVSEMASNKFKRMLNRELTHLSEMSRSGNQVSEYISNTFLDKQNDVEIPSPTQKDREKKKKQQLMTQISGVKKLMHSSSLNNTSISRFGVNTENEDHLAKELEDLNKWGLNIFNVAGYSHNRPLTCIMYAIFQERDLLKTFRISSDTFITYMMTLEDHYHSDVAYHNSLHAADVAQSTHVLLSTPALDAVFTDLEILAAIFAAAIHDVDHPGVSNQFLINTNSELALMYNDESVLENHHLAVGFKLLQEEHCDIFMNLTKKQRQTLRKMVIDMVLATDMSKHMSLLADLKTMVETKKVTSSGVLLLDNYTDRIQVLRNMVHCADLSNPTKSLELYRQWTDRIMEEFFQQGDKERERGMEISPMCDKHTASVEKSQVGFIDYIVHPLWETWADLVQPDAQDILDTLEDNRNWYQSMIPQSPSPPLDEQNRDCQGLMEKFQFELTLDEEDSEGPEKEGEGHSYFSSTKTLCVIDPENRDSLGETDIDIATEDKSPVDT
From the text: The ability of compounds to inhibit catalytic activity at PDE4B (human recombinant) or PDE4D (human recombinant) can optionally be determined by IMAP Fluorescence Polarisation (FP) assay (IMAP Explorer kit, available from Molecular Devices Corporation, Sunnydale, Calif., USA; Molecular Devices code: R8062) in 384-well format.
The IMAP FP assay is able to measure PDE activity in an homogenous, non-radioactive assay format. The FP assay uses the ability of immobilised trivalent metal cations, coated onto nanoparticles (tiny beads), to bind the phosphate group of Fl-AMP that is produced on the hydrolysis of fluorescein-labelled (Fl) cyclic adenosine mono-phosphate (Fl-cAMP) to the non-cyclic Fl-AMP form. […] Binding of Fl-AMP product to the beads (coated with the immobilised trivalent cations) slows the rotation of the bound Fl-AMP and leads to an increase in the fluorescence polarisation ratio of parallel to perpendicular light. Inhibition of the PDE reduces/inhibits this signal increase.
Test compounds (small volume, e.g. ca. 0.5 to 1 microlitres (ul), suitably ca. 0.5 ul, of solution in DMSO) are preincubated at ambient temperature (room temperature, e.g. 19-23° C.) in black 384-well microtitre plates (supplier: NUNC, code 262260) with PDE enzyme in 10 mM Tris-HCl buffer pH 7.2, 10 mM MgCl2, 0.1% (w/v) bovine serum albumin, and 0.05% NaN3 for 10-30 minutes. The enzyme level is set by experimentation so that reaction is linear throughout the incubation. Fluorescein adenosine 3′,5′-cyclic phosphate (from Molecular Devices Corporation, Molecular Devices code: R7091) is added to give about 40 nM final concentration (final assay volume usually ca. 20-40 ul, suitably ca. 20 ul). Plates are mixed on an orbital shaker for 10 seconds and incubated at ambient temperature for 40 minutes. IMAP binding reagent (as described above, from Molecular Devices Corporation, Molecular Devices code: R7207) is added (60 ul of a 1 in 400 dilution in binding buffer of the kit stock solution) to terminate the assay. Plates are allowed to stand at ambient temperature for 1 hour. The Fluorescence Polarisation (FP) ratio of parallel to perpendicular light is measured using an Analyst™ plate reader (from Molecular Devices Corporation). For inhibition curves, 10 concentrations (e.g. 1.5 nM-30 uM) of each compound are assayed. Curves are analysed using ActivityBase and XLfit (ID Business Solutions Limited, 2 Ocean Court, Surrey Research Park, Guildford, Surrey GU2 7QB, United Kingdom). Results are expressed as pIC50 values.
In the FP assay, reagents can be dispensed using Multidrop™ (available from Thermo Labsystems Oy, Ratastie 2, PO Box 100, Vantaa 01620, Finland).

COPD patients = details: cited from earlier work

COc1ccc(C2CNC(=O)NC2)cc1O[C@H]1C[C@@H]2CC[C@H]1C2 [CP80,633]
inflammatory parameters in atopic dermatitis patients ([1]; 0.5% ointment, twice daily topical application): reductions of inflammatory parameters

CCc1nc2c(cnn2CC)c(NC2CCN(C(N)=O)CC2)c1CNC(=O)CCCCCCCN1CCC[C@@H]1COC [Example 7, 4-[(1,6-diethyl-5-{[(8-{(2R)-2-[(methyloxy)methyl]-1-pyrrolidinyl}octanoyl)amino]methyl}-1H-pyrazolo[3,4-b]pyridin-4-yl)amino]-1-piperidinecarboxamide trifluoroacetate]
IC50 [2]: 200 to 1580 pM

CCc1nc2c(cnn2CC)c(NC2CCN(C(N)=O)CC2)c1CNC(=O)CCCCCCCN1CCC[C@H]1COC [Example 8, 4-[(1,6-diethyl-5-{[(8-{(2S)-2-[(methyloxy)methyl]-1-pyrrolidinyl}octanoyl)amino]methyl}-1H-pyrazolo[3,4-b]pyridin-4-yl)amino]-1-piperidinecarboxamide trifluoroacetate]
IC50 [2]: 200 to 1580 pM

CCc1nc2c(cnn2CC)c(NC2CCOCC2)c1CNC(=O)CCCCCCCN1CCC[C@@H]1COC [Example 15, N-{[1,6-diethyl-4-(tetrahydro-2H-pyran-4-ylamino)-1H-pyrazolo[3,4-b]pyridin-5-yl]methyl}-8-{(2R)-2-[(methyloxy)methyl]-1-pyrrolidinyl}octanamide trifluoroacetate]
IC50 [2]: 200 to 1580 pM

CCc1nc2c(cnn2CC)c(NC2CCOCC2)c1CNC(=O)CCCCCCCN1CCC[C@H]1COC [Example 16, N-{[1,6-diethyl-4-(tetrahydro-2H-pyran-4-ylamino)-1H-pyrazolo[3,4-b]pyridin-5-yl]methyl}-8-{(2S)-2-[(methyloxy)methyl]-1-pyrrolidinyl}octanamide trifluoroacetate]
IC50 [2]: 200 to 1580 pM

COc1ccc([C@]2(C#N)CC[C@@H](C(=O)O)CC2)cc1OC1CCCC1 [cilomilast]
forced expiratory volume in 1s (FEV1) (COPD patients; 15 mg orally twice daily): appears to improve forced expiratory volume in 1s (FEV1)
antiinflammatory effects in COPD patients (COPD patients): appears to have antiinflammatory effects

Nc1nc2c([nH]1)c(=O)n(CC1CC1)c(=O)n2CC1CC1 [cipamfylline]
efficacy in the treatment of atopic dermatitis patients versus hydrocortisone 17-butyrate (0.1%) cream ([1]; 0.15% cream): significantly less effective than hydrocortisone 17-butyrate (0.1%) cream
efficacy in the treatment of atopic dermatitis patients versus vehicle ([1]; 0.15% cream): significantly more effective than vehicle

O=C(Nc1c(Cl)cncc1Cl)c1ccc(OC(F)F)c(OCC2CC2)c1 [roflumilast]
FEV1 in COPD patients (COPD patients): appears to show small improvements in FEV1
